From a melting point compilation (Tetko et al.; mined from patent text by program, amines drawn as free bases though some values may be those of a salt)

Work on `Cc1nnc(-c2ccc3occ(-c4cc(F)ccc4Cl)c3c2)o1` yielded a melting point of 130 to 131 °C. With `OCc1cc(Cc2ccccc2)cs1` the melting point was 33 to 34 °C. For `OC1CSC(Oc2cncc(-c3ccc(N4CCCCC4)cc3)c2)C(O)C1O` (stereo unspecified), the melting point was 196 °C. `Cn1cc(C2=C(c3ccncc3)C(=O)OC2=O)c2ccccc21` gave a melting point of 217 to 219 °C. In the case of `CCOc1ccc(F)c(N=Cc2cnc(SC)nc2NC2CCCC2)c1F`, the melting point is reported as 136 to 141 °C. For `Nc1ncc2cc(-c3c(Cl)cccc3Cl)c(=O)n(CCCc3ccccc3)c2n1`, the melting point was 161 to 163 °C. With `CCN(c1cccc(-c2ccnc3c([N+](=O)[O-])cnn23)c1)S(=O)(=O)c1ccccc1` the melting point was 189 to 191 °C. With `N#Cc1cc(-c2ccnc(Nc3cccc(C(F)(F)F)c3)n2)ccn1` the melting point was 164 to 166 °C. For `COC(C)(C)C(C#N)=NO`, the melting point was 102 to 104 °C. Molecule `CC(=O)OCCN1C(=O)C(=Cc2cc(C(C)(C)C)c(O)c(C(C)(C)C)c2)SC1=S` has a melting point of 140 to 143 °C. `Cc1ncn(C)c1[N+](=O)[O-]` gave a melting point of 45 °C. For `N#Cc1c(C#N)c(Oc2ccc3ccccc3c2)c(Oc2ccc3ccccc3c2)c(Oc2ccc3ccccc3c2)c1Oc1ccc2ccccc2c1`, the melting point was 188 to 190 °C. `O=C(CNc1ccccc1)c1ccccc1` gave a melting point of 97 to 99 °C. For `Cc1cc2oc(C(N)=O)cc(=O)c2c(C)c1Cl`, the melting point was greater than 300 °C. With `O=C(NC(O)C(F)(F)F)c1ccc(Cl)cc1` (stereo unspecified) the melting point was 140 °C. Molecule `CC(C)(C)c1cc(-c2cn3ccsc3n2)cc(C(C)(C)C)c1O` has a melting point of 184 to 185 °C. With `Cc1ccc(N=C(NC#N)NCc2ccc3c(c2)CN(C2CCC(=O)NC2=O)C3=O)cc1Cl` (stereo unspecified) the melting point was 325 to 327 °C. Molecule `CN(C)Cc1cc(C(=O)c2sccc2Cl)cc(C(C)(C)C)c1O` has a melting point of 131 to 132 °C. Work on `O=C1NCCC[C@@H]1NS(=O)(=O)c1ccc(F)cc1F` yielded a melting point of 162 to 163 °C. With `Cn1c(=O)c2c(Cl)nccc2n(C)c1=O` the melting point was 220 °C. With `O=C(O)Cc1c(C(=O)O)c2cc(Oc3cc(Cl)cc(Cl)c3)ccc2n1-c1ccc(OC(F)(F)F)cc1` the melting point was 219 to 223 °C. Work on `CCOC(=O)c1csc(C2CCC2)n1` yielded a melting point of 48 to 50 °C. `CCCCOC(=O)CNC(=O)c1ccc2cc(C(=O)OC)[nH]c2c1` showed a melting point of 181 to 184 °C. Molecule `COc1cc(OC)c2c(=O)[nH]c(-c3cccc(N4CCN(C(C)CO)CC4)n3)nc2c1` (stereo unspecified) has a melting point of 202 to 204 °C. `COC(=O)c1cccc(C(=O)N(C)c2ccc3c(=O)n4c(nc3c2)C(=Cc2ccccc2)CC4)c1` showed a melting point of 200 to 202 °C. `CCCOc1ccc(S(=O)(=O)N2CCN(CCOC(C)=O)CC2)cc1-c1nc2c(CCC)cn(CC)c2c(=O)[nH]1` showed a melting point of 139 to 140 °C. `CCc1cc2c(s1)-n1c(Cl)nnc1CN=C2c1ccccc1Cl` gave a melting point of 133 to 135 °C. `O=c1c2c(Cc3ccc(C(F)(F)F)cc3)n[nH]c2c2cccnc2n1-c1cccc(OC(F)(F)F)c1` showed a melting point of 227 to 231 °C. Molecule `CC(C)C(=O)NS(=O)(=O)c1cccc(N)c1` has a melting point of 110 to 112 °C. With `CN(C1CC(C)(C)NC(C)(C)C1)C1CC(C)(C)NC(C)(C)C1` the melting point was 51 to 53 °C. With `O=[N+]([O-])c1ccc(Oc2cc3ccccc3cc2Oc2ccc([N+](=O)[O-])c(O)c2)cc1O` the melting point was 179 to 181 °C. `Cc1c(C(=O)Nc2ccc(N(CCO)CCO)c(C#N)c2)c2cc(F)ccc2n1CC(=O)O` showed a melting point of 150 to 153 °C. In the case of `CCCc1ccccc1OCCCOc1cccc(OC(=CC(=O)OC)C(=O)OC)c1CC`, the melting point is reported as 63.5 to 66 °C. Work on `N#Cc1c(-c2ccc(Cl)cc2)[nH]c(C(F)(F)F)c1Cl` yielded a melting point of 242 to 243 °C. Work on `CCCCCCCCC#CCC#CCC#CCO` yielded a melting point of 48 °C. Work on `NC1CCn2c1nc1cc(NC(=O)c3cc4cc(F)ccc4n3Cc3cccc(F)c3)cnc12` (stereo unspecified) yielded a melting point of 218 to 220 °C. Molecule `FC(F)(F)c1cc(/C=C/c2ncon2)ccc1Cl` has a melting point of 85 to 87 °C. In the case of `O=C(Nc1cccc(-c2ccnc3c(C(=O)c4cccs4)cnn23)c1)c1cc(C(F)(F)F)ccc1C(F)(F)F`, the melting point is reported as 208 to 210 °C. With `CCC(=O)c1ccc(Oc2ccc(-c3scc(-c4ccccc4Cl)c3CC(=O)N=C(N)N)cc2)cc1` the melting point was 123 to 124 °C. Work on `CN(C)CCOc1ccc2ccc(NC(=O)c3ccccc3)nc2n1` yielded a melting point of 109 °C. `COc1c(C=Cc2ccccc2)cc(C(C)(C)C)cc1C=Cc1ccccc1` gave a melting point of 129 to 130 °C. With `CC(C#N)c1ccc2oc(-c3ccccc3)nc2c1` (stereo unspecified) the melting point was 118 to 120 °C. In the case of `O=c1[nH][nH]c(=O)c(-c2c(F)cc(F)cc2F)c1-c1ccc(Br)cc1`, the melting point is reported as 134 to 137 °C. Work on `CC(C)NC(=O)N1CC(Oc2cccc(C(F)(F)F)c2)C1` yielded a melting point of 150 to 152 °C. For `CCOC(=O)C1=C(COCc2nc(C(=O)OCC)cs2)NC(C)=C(C(=O)OC)C1c1ccccc1Cl` (stereo unspecified), the melting point was 111 to 113 °C. `CCn1cc(-c2coc3ccc(-c4nnc(C)o4)cc23)cn1` gave a melting point of 122 to 123 °C. `CN1c2ccncc2NCc2cccn21` showed a melting point of 135 to 140 °C. Molecule `Cc1ccc(C(=O)C=Cc2ccccc2)c(C)c1` has a melting point of 68 °C. Work on `CC(=O)OCc1nnc2n1-c1sc(Cl)cc1C(c1ccccc1Cl)=NC2` yielded a melting point of 191 to 193 °C. With `CCCCCCCCCCCCCCCCCC(=O)Oc1cc(C(C)(C)C)c(O)c(C(C)(C)C)c1` the melting point was 35 to 39 °C. Work on `COC(=O)c1sccc1S(=O)(=O)NC(=O)Nc1nc(OC)cc(OC)n1` yielded a melting point of 191 to 193 °C. With `CSc1cc(C)nc(SC)c1NC(=O)CCCCSc1nc2ccccc2o1` the melting point was 147 to 150 °C. `O=C(Nc1ccc(F)nc1)OCC(Cl)(Cl)Cl` gave a melting point of 114 to 115 °C. Molecule `Cc1ccc(Cc2cnc(NCCCNc3cccc(C)n3)[nH]c2=O)cn1` has a melting point of 113 to 120 °C. For `CCOC(=NC(=O)Nc1ccc(OC(F)(F)F)cc1)N1Cc2ccccc2-c2ccccc2C1`, the melting point was 129 to 130 °C. With `CCC(N)=C(C(C)=O)C(=O)N(CCN(C)C)c1ccccc1` the melting point was 103 to 105 °C. With `CCOC(=O)c1sc(N(C)C)c2c1CCc1cnn(C)c1-2` the melting point was 118 to 119 °C. `COc1ccc2nc(C3(OC)C=CC(=NS(=O)(=O)c4ccc(C)cc4)C=C3)sc2c1` (stereo unspecified) showed a melting point of 166 to 168 °C. In the case of `CCOC(=O)c1cc(C)n(-c2cccc(S(C)(=O)=O)c2)c1-c1ccccc1`, the melting point is reported as 131 to 133 °C. For `O=C(O)c1cc(Cl)cc(Cl)c1NS(=O)(=O)c1ccc(Cl)cc1`, the melting point was 273 to 276 °C. `Cc1ccc(C)c(OCc2ccccc2C(=O)c2cc(C)no2)c1` gave a melting point of 106 to 108 °C. For `CC(=O)Oc1cc2c(s1)C(N1CCCC1=O)CC(C)(C)O2` (stereo unspecified), the melting point was 92 to 93 °C. `Cc1c(Cl)sc2c1c(-c1ccccc1F)nc(=O)n2C` showed a melting point of 175 to 176 °C. With `CCCC(=O)ONC(=N)c1ccc(NC(=O)CCCC(=O)Nc2ccc(C(=N)NOC(=O)CCC)cc2)cc1` the melting point was 194 to 196 °C. `CCC(=O)N(OC(=O)NC)C(=O)NC` gave a melting point of 90.5 to 92.5 °C. Molecule `Cc1cc(C)c2ncn(/C=C/C(=O)O)c(=O)c2c1` has a melting point of 284 to 288 °C. `O=C(O)c1cccc(-c2cccc(Oc3cccc(Cl)c3Cl)n2)c1` showed a melting point of 216 to 217 °C. With `O=Cc1ccc(OC[C@H]2CO2)cc1` the melting point was 32 °C. With `CN(C)S(=O)(=O)c1ccc(-c2ccccc2)cc1S(=O)(=O)Cl` the melting point was 140 to 143 °C. For `COc1ccc2cc3c(N)nn(-c4ccccc4)c3nc2c1`, the melting point was 159 to 160 °C. With `O=C(C=Cc1ccc(C(=O)O)cn1)NCCCCN1CCN(C(c2ccccc2)c2ccccc2)CC1` the melting point was 214 to 216 °C.
